Results published in patent US8916577B2, “Tricyclic derivatives, process for their preparation and their use as kinase inhibitors” (Nerviano Medical Sciences S.R.L., priority 2011, dated 2014).
Counter-ions that a name gives are not always drawn.

Biological target: MPS1 (Homo sapiens (Human), UniProt P33981)
Experiment: Biochemical assay for inhibitors of MPS1 kinase activity (33P-ATP trans-phosphorylation, Dowex)
Settings: 5 nM MPS1, 15 microM ATP, P38-β-tide 200 microM
Text: Cloning, Expression and Purification of Recombinant MPS1 Full Length Protein.
MPS1 full length (corresponding to residues 2-857 of the full length sequence, see Swiss-Prot accession number P33981) was PCR amplified from the full-length human MPS1 gene present in house as clone pGEX4t_MPS1.
Baculoviruses were generated by cotransfecting Sf9 insect cells with the expression vector and the viral DNA using the BaculoGold® transfection kit (Pharmingen). Viral supernatant was recovered after 5 days and subjected to 3 rounds of amplification to increase viral titer. Recombinant protein was produced by infecting High5 insect cells. After 72 hours of infection at 21° C., cells were recovered, pelletted and freezed at −80° C. For purification of recombinant protein, pellet was thawed, resuspended in lysis buffer (PBS, NaCl 150 mM, Glycerol 10%, CHAPS 0.1%, DTT 20 mM, protease and phosphatase inhibitors) and lysed by Gaulin. Lysate was cleared by centrifugation and loaded on a GST affinity column. After extensive wash, recombinant protein was cleaved by a specific protease and eluted by incubation.
To get a fully activated enzyme, the protein was then subjected to auto-phosphorylation in presence of ATP 1 mM at 25° C. for 2 hours in kinase buffer (Hepes pH7.5 50 mM, MgCl2 2.5 mM, MnCl2 1 mM, DTT 1 mM, phosphatase inhibitors); ATP was then removed whit a desalting column.
Biochemical Assay for Inhibitors of MPS1 Kinase Activity
The inhibitory activity of putative kinase inhibitors and the potency of selected compounds were determined using a trans-phosphorylation assay.
Specific peptide or protein substrates are trans-phosphorylated by their specific ser-thr or tyr kinase in the presence of ATP traced with ^33P-γ-ATP, and in the presence of their own optimal buffer and cofactors.
At the end of the phosphorylation reaction, more than 98% unlabeled ATP and radioactive ATP is captured by an excess of the ion exchange dowex resin; the resin then settles down to the bottom of the reaction plate by gravity.
Supernatant is subsequently withdrawn and transferred into a counting plate, then evaluated by P-counting.
The buffer for MPS1 assay was composed of HEPES 50 mM, at pH 7.5, with 2.5 mM MgCl2, 1 mM MnCl2, 1 mM DTT, 3 microM Na3VO4, 2 mM P-glycerophosphate and 0.2 mg/mL BSA.
The assay was run with a final concentration MPS1 of 5 nM, in the presence of 15 microM ATP and 1.5 nM ^33P-γ-ATP; the substrate was P38-β-tide, used at 200 microM.
The test mix consisted of:
1) 3× Enzyme mix (done in Kinase Buffer 3×), 5 microL/well
2) 3× substrate and ATP mix (done in ddH2O), together with ^33P-γ-ATP, 5 microL/well
3) 3× test compounds (diluted into ddH2O—3% DMSO)—5 microL/well
a) for percent inhibition studies (HTS), individual dilution plates at 1 mM are diluted at a 3× concentration (30 microM) in ddH2O (3% DMSO=final concentration) using a Beckman NX automated pipetting platform. The same instrument is used for distributing the diluted mother plates into the test plates. b) for IC50 determination (KSS platform), 100 μl of each compound at 1 mM in 100% DMSO are transferred from the original plate into the first column of another 96 well plate (A1 to G1); well H1 is left empty for the internal standard inhibitor, usually staurosporine.
An automated station for serial dilutions (Biomek FX, Beckman) is used for producing 1:3 dilutions in 100% DMSO, from line A1 to A10, and for all the seven compounds in the column. Moreover, 4-5 copies of daughter plates are prepared by reformatting 5 microL of this first set of 100% DMSO dilution plates into 384 deep well-plates: one copy of the daughter plates with the serial dilutions of test compounds will be thaw the day of the experiments, reconstituted at a 3× concentration with water and used in the IC50 determination assays. In a standard experiment, the highest concentration (3×) of all compounds is 30 microM, while the lowest one is 1.5 nM. […]

MPS1, sequence (P33981 2-857): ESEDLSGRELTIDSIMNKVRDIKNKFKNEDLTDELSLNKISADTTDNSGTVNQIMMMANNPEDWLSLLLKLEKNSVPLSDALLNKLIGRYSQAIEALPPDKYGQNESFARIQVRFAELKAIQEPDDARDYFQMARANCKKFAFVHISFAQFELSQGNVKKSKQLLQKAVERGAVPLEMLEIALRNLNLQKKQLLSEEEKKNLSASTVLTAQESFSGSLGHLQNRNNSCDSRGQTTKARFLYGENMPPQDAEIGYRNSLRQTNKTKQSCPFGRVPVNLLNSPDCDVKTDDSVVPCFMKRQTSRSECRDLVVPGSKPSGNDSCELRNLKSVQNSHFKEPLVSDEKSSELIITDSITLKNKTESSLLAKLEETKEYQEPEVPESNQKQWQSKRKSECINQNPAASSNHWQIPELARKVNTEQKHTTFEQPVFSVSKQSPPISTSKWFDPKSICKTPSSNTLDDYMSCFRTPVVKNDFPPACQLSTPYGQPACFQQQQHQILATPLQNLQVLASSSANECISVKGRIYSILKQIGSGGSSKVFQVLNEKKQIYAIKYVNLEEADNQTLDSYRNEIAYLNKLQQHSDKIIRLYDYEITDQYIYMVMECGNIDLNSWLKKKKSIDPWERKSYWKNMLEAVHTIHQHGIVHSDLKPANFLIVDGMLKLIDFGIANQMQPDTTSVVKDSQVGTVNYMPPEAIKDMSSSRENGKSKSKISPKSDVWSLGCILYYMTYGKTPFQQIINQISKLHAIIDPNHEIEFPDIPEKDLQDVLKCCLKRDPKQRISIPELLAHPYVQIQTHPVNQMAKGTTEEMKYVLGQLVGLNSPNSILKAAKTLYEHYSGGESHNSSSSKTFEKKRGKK

Row | Compound | IC50 [nM]
1 | COc1cc(Br)ccc1Nc1ncc2c(n1)-c1c(c(C(N)=O)nn1C)CCC2 [Compound 1, 9-[(4-bromo-2-methoxyphenyl)amino]-1-methyl-1,4,5,6-tetrahydropyrazolo[4′,3′:6,7]cyclohepta[1,2-d]pyrimidine-3-carboxamide] | 421
2 | CCc1cccc(CC)c1NC(=O)c1nn(C)c2c1CCCc1cnc(Nc3ccc(N4CCN(C)CC4)cc3OC)nc1-2 [Compound 4, N-(2,6-diethylphenyl)-9-{[2-methoxy-4-(4-methylpiperazin-1-yl)phenyl]amino}-1-methyl-1,4,5,6-tetrahydropyrazolo[4′,3′:6,7]cyclohepta[1,2-d]pyrimidine-3-carboxamide] | 184
3 | COc1cc(N2CCN(C)CC2)ccc1Nc1ncc2c(n1)-c1c(c(C(=O)Nc3ccccc3)nn1C)CCC2 [Compound 8, 9-{[2-methoxy-4-(4-methylpiperazin-1-yl)phenyl]amino}-1-methyl-N-phenyl-1,4,5,6-tetrahydropyrazolo[4′,3′:6,7]cyclohepta[1,2-d]pyrimidine-3-carboxamide] | 353
4 | CCc1cccc(C)c1NC(=O)c1nn(C)c2c1CCCc1cnc(Nc3ccc(N4CCN(C)CC4)cc3OC)nc1-2 [Compound 27, N-(2-ethyl-6-methylphenyl)-9-{[2-methoxy-4-(4-methylpiperazin-1-yl)phenyl]amino}-1-methyl-1,4,5,6-tetrahydropyrazolo[4′,3′:6,7]cyclohepta[1,2-d]pyrimidine-3-carboxamide] | 189
5 | COc1cc(N2CCN(C)CC2)ccc1Nc1ncc2c(n1)-c1c(c(C(=O)NC3CCCCC3)nn1C)CCC2 [Compound 28, N-cyclohexyl-9-{[2-methoxy-4-(4-methylpiperazin-1-yl)phenyl]amino}-1-methyl-1,4,5,6-tetrahydropyrazolo[4′,3′:6,7]cyclohepta[1,2-d]pyrimidine-3-carboxamide] | 249
6 | CNC(=O)c1nn(C)c2c1CCCc1cnc(Nc3ccc(Br)cc3OC)nc1-2 [Compound 32, 9-[(4-bromo-2-methoxyphenyl)amino]-N,1-dimethyl-1,4,5,6-tetrahydropyrazolo[4′,3′:6,7]cyclohepta[1,2-d]pyrimidine-3-carboxamide] | 277
7 | CCc1cccc(CC)c1NC(=O)c1nn(C)c2c1CCCc1cnc(Nc3ccc(C(=O)NC4CCN(C)CC4)cc3OC)nc1-2 [Compound 35, N-(2,6-diethylphenyl)-9-({2-methoxy-4-[(1-methylpiperidin-4-yl)carbamoyl]phenyl}amino)-1-methyl-1,4,5,6-tetrahydropyrazolo[4′,3′:6,7]cyclohepta[1,2-d]pyrimidine-3-carboxamide] | 66
8 | CCc1cccc(CC)c1NC(=O)c1nn(C)c2c1CCCc1cnc(Nc3ccc(C(=O)N4CCCN(C)CC4)cc3OC(F)(F)F)nc1-2 [Compound 43, N-(2,6-diethylphenyl)-1-methyl-9-({4-[(4-methyl-1,4-diazepan-1-yl)carbonyl]-2-(trifluoromethoxy)phenyl}amino)-1,4,5,6-tetrahydropyrazolo[4′,3′:6,7]cyclohepta[1,2-d]pyrimidine-3-carboxamide] | 199
9 | CCc1cccc(CC)c1NC(=O)c1nn(CC(F)(F)F)c2c1CCCc1cnc(Nc3ccc(N4CCN(C)CC4)cc3OC)nc1-2 [Compound 56, N-(2,6-diethylphenyl)-9-{[2-methoxy-4-(4-methylpiperazin-1-yl)phenyl]amino}-1-(2,2,2-trifluoroethyl)-1,4,5,6-tetrahydropyrazolo[4′,3′:6,7]cyclohepta[1,2-d]pyrimidine-3-carboxamide] | 862
10 | CCc1cccc(CC)c1NC(=O)c1nn(CCO)c2c1CCCc1cnc(Nc3ccc(N4CCC(N(C)C)CC4)cc3OC)nc1-2 [Compound 71, N-(2,6-diethylphenyl)-9-({4-[4-(dimethylamino)piperidin-1-yl]-2-methoxyphenyl}amino)-1-(2-hydroxyethyl)-1,4,5,6-tetrahydropyrazolo[4′,3′:6,7]cyclohepta[1,2-d]pyrimidine-3-carboxamide trifluoroacetate] | 174
11 | CCc1cccc(CC)c1NC(=O)c1c2c(nn1C)-c1nc(Nc3ccc(N4CCN(C)CC4)cc3OC)ncc1CCC2 [Compound 97, N-(2,6-diethylphenyl)-9-{[2-methoxy-4-(4-methylpiperazin-1-yl)phenyl]amino}-2-methyl-2,4,5,6-tetrahydropyrazolo[4′,3′:6,7]cyclohepta[1,2-d]pyrimidine-3-carboxamide] | 853
12 | CCc1cccc(CC)c1NC(=O)c1noc2c1CCCc1cnc(Nc3ccc(N4CCN(C)CC4)cc3OC)nc1-2 [Compound 99, N-(2,6-diethylphenyl)-9-{[2-methoxy-4-(4-methylpiperazin-1-yl)phenyl]amino}-5,6-dihydro-4H-isoxazolo[4′,5′:6,7]cyclohepta[1,2-d]pyrimidine-3-carboxamide] | 134
13 | CCc1cccc(CC)c1NC(=O)c1onc2c1CCCc1cnc(Nc3ccc(N4CCN(C)CC4)cc3OC)nc1-2 [Compound 101, N-(2,6-diethylphenyl)-9-{[2-methoxy-4-(4-methylpiperazin-1-yl)phenyl]amino}-5,6-dihydro-4H-isoxazolo[4′,3′:6,7]cyclohepta[1,2-d]pyrimidine-3-carboxamide] | 308
